{"source": "patent US9777297B2", "about": "(EASEL BIOTECHNOLOGIES, LLC, priority 2011, dated 2017)", "tested_on": "engineered E. coli", "test": "n-butyraldehyde toxicity incubation test in sealed tube, colony forming units versus time", "format": "cell-based", "experimental": "In all cases, including the case in which no addition is made, the number of colony forming units tends to a minimum value (e.g., cells no longer viable) after about 24 hours."}
{"smiles": "CCCC=O", "note": "[n-butyraldehyde]", "values": [{"measurement": "change in colony forming units per μL", "setting": "1.0 g/L n-butyraldehyde added, a little after 5 hours", "result": "net increase"}, {"measurement": "change in colony forming units per μL", "setting": "1.2 g/L and above n-butyraldehyde added, at 4.5 hours", "result": "net decrease"}]}
